Results on 16 compounds are retold here after EP2881391A1, “Spiroindoline carbocycle derivatives and pharmaceutical compositions thereof” (Bayer Pharma Aktiengesellschaft, priority 2013, dated 2015).

The target in the assay is T1, human GnRH receptor (Homo sapiens, UniProt P30968).
T1 construct: line established by Prof; Thomas Gudermann; host or cells: CHO cells
T1 sequence (P30968 1-328): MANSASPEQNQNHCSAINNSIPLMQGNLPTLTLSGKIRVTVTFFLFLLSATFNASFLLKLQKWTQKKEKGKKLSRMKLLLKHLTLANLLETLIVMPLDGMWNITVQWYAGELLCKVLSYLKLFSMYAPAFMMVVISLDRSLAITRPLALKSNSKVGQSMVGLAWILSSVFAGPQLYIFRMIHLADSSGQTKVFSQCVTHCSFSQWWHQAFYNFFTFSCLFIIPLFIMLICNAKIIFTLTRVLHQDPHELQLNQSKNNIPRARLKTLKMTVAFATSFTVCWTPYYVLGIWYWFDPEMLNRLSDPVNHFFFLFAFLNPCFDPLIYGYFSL
Nature of the assay: IP-One HTRF assay (inhibition of GnRH-R activation by buserelin). The assay is classed as cell-based. The conditions noted are these: IP-One HTRF assay with buserelin (at EC80) stimulation; CHO cells stably expressing human GnRH receptor; tested 20 µM to 1 nM; read-out: Potency IC50. From the text: By using homogenous time-resolved fluorescence resonance energy transfer (HTRF), the generation of one component of the GnRH-R signalling cascade can be measured. After stimulation of CHO cells stably expressing human GnRH receptor (established by Prof. Thomas Gudermann, currently University of Marburg, Germany; supplied as frozen cell aliquots by Cell Culture Services, Hamburg, Germany) with the EC80 of the GnRH agonist buserelin, Gq protein-coupled receptor signalling cascade is activated resulting in PLC-dependent cleavage of PIP2 to Inositol-1,4,5-triphosphate (IP3) and Diacylglycerol. The second messenger IP3 is degraded intracellularly to myo-inositol. Inhibition of the final degradation step from Inositol-1-phosphate (IP1) to myo-inositol by addition of lithium chloride leads to accumulation of IP1 in the cells. In cell lysates, IP1 can be detected via an antibody-based HTRF detection technology, where IP1 can displace the FRET acceptor IP1-d2 from binding by Terbium-labelled anti-IP1 antibody as donor resulting in a signal decrease. Compounds were tested for their capability of inhibiting GnRH-R activation by buserelin. For all IP-One HTRF® assays reagents of Cisbio Bioassays (IP-One Tb Jumbo kit, #62IPAPEJ; Cisbio Bioassays, Bagnols sur Cèze Cedex, France) were used.
For the assay, frozen cell aliquots were thawed and a cell suspension (3.33x10^6 cells/ml) containing IP1-d2 (dilution 1:40) was prepared and incubated at 37°C. After 1 h 3 µl of the cell suspension were added to 50 nl of a 100-fold concentrated solution of the test compound in DMSO pre-dispensed in a well of a white low-volume 384-well microtiter plate (Greiner Bio-One, Frickenhausen, Germany). The mixture was incubated for 20 min at 22°C to allow for pre-binding of the test compound to the GnRH-R. The receptor signaling cascade was stimulated by addition of 2 µl buserelin or LHRH (at EC50 or EC80) in stimulation buffer (10 mM Hepes pH 7.4, 1 mM CaCl2, 0.5 mM MgCl2, 4.2 mM KCI, 146 mM NaCl, 5.5 mM α-D-Glucose, 0.05% BSA, 125 mM LiCl (final assay concentration 50 mM) in aqua dest.). Plates were incubated for 1 h at 37°C and 5% carbon dioxide before the cells were lysed by adding 3 µl Terbium-labelled anti-IP1 antibody (1:40) diluted in Conjugate & Lysis buffer as supplied with the kit. After an incubation for 1 h at 22°C to enable complete cell lysis and antibody binding to free IP1 or IP1-d2, plates were measured in an HTRF reader, e.g. a RUBYstar, PHERAstar (both BMG Labtechnologies, Offenburg, Germany) or a Viewlux (PerkinElmer LAS, Rodgau-Jügesheim, Germany). From the fluorescence emissions at 665 nm (FRET) and at 620 nm (background signal of Terbium-antibody), the ratio (emission at 665 nm divided by emission at 620 nm) was calculated and the data were normalized (reaction without test compound = 0% inhibition; all other assay components except agonist = 100% inhibition). On the same microtiter plate, compounds were tested at 10 different concentrations in the range of 20 µM to 1 nM (20 µM, 6.7 µM, 2.2 µM, 0.74 µM, 0.25 µM, 82 nM, 27 nM, 9.2 nM, 3.1 nM and 1 nM; dilution series prepared before the assay at the level of the 100-fold conc. stock solutions by serial 1:3 dilutions in 100% DMSO) in duplicate values for each concentration. By using an in-house software, the IC50 values were calculated by a 4 parameter fit. The data reveal that the compounds of the present invention have antagonist activities on the human GnRH receptor. Within the meaning of the present invention the antagonist activity is reflected by the ability of a compound of the invention to antagonize human GnRH receptor stimulation in IP-One HTRF® assay at least three times the standard deviation over the background level.
(In TR-FRET formats the signal depends on donor and acceptor labels being close together.)
Regarding `COC(=O)c1cccc(S(=O)(=O)N2c3ccc(C(=O)NCc4ncccc4Cl)cc3C3(CCCCC3)C2C2CC2)c1` (stereo not shown) [Example 11, methyl 3-{[5'-{[(3-chloropyridin-2-yl)methyl]carbamoyl}-2'-cyclopropylspiro[cyclohexane-1,3'-indol]-1'(2'H)-yl]sulfonyl}benzoate], the IC50 (commonly the midpoint of a concentration-inhibition curve) was 1220 nM.
`CC(C)=CCC1N(S(=O)(=O)c2ccc(F)cc2)c2ccc(C(=O)Nc3cc[nH]n3)cc2C12CCC(O)(C(F)(F)F)CC2` (stereo not shown) [Example 12, 1'-[(4-fluorophenyl)sulfonyl]-4-hydroxy-2'-(3-methylbut-2-en-1-yl)-N-(1H-pyrazol-3-yl)-4-(trifluoromethyl)-1',2'-dihydrospiro[cyclohexane-1,3'-indole]-5'-carboxamide]: the IC50 is 1420 nM.
For `CC(C)=CCC1N(S(=O)(=O)c2ccc(F)cc2)c2ccc(C(=O)Nc3cccc(C)c3)cc2C12CCC(O)(C(F)(F)F)CC2` (stereo not shown) [Example 13, 1'-[(4-fluorophenyl)sulfonyl]-4-hydroxy-2'-(3-methylbut-2-en-1-yl)-N-(3-methylphenyl)-4-(trifluoromethyl)-1',2'-dihydrospiro[cyclohexane-1,3'-indole]-5'-carboxamide], the IC50 turned out to be 3250 nM.
As to `CC(C)=CCC1N(S(=O)(=O)c2ccc(F)cc2)c2ccc(C(=O)Nc3cccc(C(=O)O)c3)cc2C12CCC(O)(C(F)(F)F)CC2` (stereo not shown) [Example 14, 3-[({1'-[(4-fluorophenyl)sulfonyl]-4-hydroxy-2'-(3-methylbut-2-en-1-yl)-4-(trifluoromethyl)-1',2'-dihydrospiro[cyclohexane-1,3'-indol]-5'-yl}carbonyl)amino] benzoic acid], the IC50 turned out to be 639 nM.
Then `CC(C)=CCC1N(S(=O)(=O)c2ccc(F)cc2)c2ccc(C(=O)Nc3cccc(S(C)(=O)=O)c3)cc2C12CCC(O)(C(F)(F)F)CC2` (stereo not shown) [Example 15, 1'-[(4-fluorophenyl)sulfonyl]-4-hydroxy-2'-(3-methylbut-2-en-1-yl)-N-[3-(methylsulfonyl)phenyl]-4-(trifluoromethyl)-1',2'-dihydrospiro[cyclohexane-1,3'-indole]-5'-carboxamide], with 1280 nM; and `CC(C)=CCC1N(S(=O)(=O)c2ccc(F)cc2)c2ccc(C(=O)Nc3cccc(S(N)(=O)=O)c3)cc2C12CCC(O)(C(F)(F)F)CC2` (stereo not shown) [Example 16, 1'-[(4-fluorophenyl)sulfonyl]-4-hydroxy-2'-(3-methylbut-2-en-1-yl)-N-(3-sulfamoylphenyl)-4-(trifluoromethyl)-1',2'-dihydrospiro[cyclohexane-1,3'-indole]-5'-carboxamide], with 1850 nM; and `CC(C)=CCC1N(S(=O)(=O)c2ccc(F)cc2)c2ccc(C(=O)Nc3ccon3)cc2C12CCC(O)(C(F)(F)F)CC2` (stereo not shown) [Example 17, 1'-[(4-fluorophenyl)sulfonyl]-4-hydroxy-2'-(3-methylbut-2-en-1-yl)-N-(1,2-oxazol-3-yl)-4-(trifluoromethyl)-1',2'-dihydrospiro[cyclohexane-1,3'-indole]-5'-carboxamide], with 524 nM.
On to `CC(C)=CCC1N(S(=O)(=O)c2ccc(F)cc2)c2ccc(C(=O)Nc3cncc(C)c3)cc2C12CCC(O)(C(F)(F)F)CC2` (stereo not shown) [Example 18, 1'-[(4-fluorophenyl)sulfonyl]-4-hydroxy-2'-(3-methylbut-2-en-1-yl)-N-(5-methylpyridin-3-yl)-4-(trifluoromethyl)-1',2'-dihydrospiro[cyclohexane-1,3'-indole]-5'-carboxamide], for which the IC50 worked out at 1840 nM.
Then `CC(C)=CCC1N(S(=O)(=O)c2ccc(F)cc2)c2ccc(C(=O)Nc3cncc(C(F)(F)F)c3)cc2C12CCC(O)(C(F)(F)F)CC2` (stereo not shown) [Example 19, 1'-[(4-fluorophenyl)sulfonyl]-4-hydroxy-2'-(3-methylbut-2-en-1-yl)-4-(trifluoromethyl)-N-[5-(trifluoromethyl)pyridin-3-yl]-1',2'-dihydrospiro[cyclohexane-1,3'-indole]-5'-carboxamide], with 9400 nM; and `CC(C)=CCC1N(S(=O)(=O)c2ccc(F)cc2)c2ccc(C(=O)Nc3ncco3)cc2C12CCC(O)(C(F)(F)F)CC2` (stereo not shown) [Example 20, 1'-[(4-fluorophenyl)sulfonyl]-4-hydroxy-2'-(3-methylbut-2-en-1-yl)-N-(1,3-oxazol-2-yl)-4-(trifluoromethyl)-1',2'-dihydrospiro[cyclohexane-1,3'-indole]-5'-carboxamide], with 655 nM.
For `CC(C)=CCC1N(S(=O)(=O)c2ccc(F)cc2)c2ccc(C(=O)NCC3CCCCC3)cc2C12CCC(O)(C(F)(F)F)CC2` (stereo not shown) [Example 21, N-(cyclohexylmethyl) -1'-[(4-fluorophenyl)sulfonyl]-4-hydroxy-2'-(3-methylbut-2-en-1-yl)-4-(trifluoromethyl)-(trifluoromethyl)-1',2'-dihydrospiro[cyclohexane-1,3'-indole]-5'-carboxamide], the IC50 came to 13200 nM.
For `CC(C)=CCC1N(S(=O)(=O)c2ccc(F)cc2)c2ccc(C(=O)NCc3ccccc3Cl)cc2C12CCC(O)(C(F)(F)F)CC2` (stereo not shown) [Example 22, N-(2-chlorobenzyl)-1'-[(4-fluorophenyl)sulfonyl]-4-hydroxy-2'-(3-methylbut-2-en-1-yl)-4-(trifluoromethyl)-1',2'-dihydrospiro[cyclohexane-1,3'-indole]-5'-carboxamide], the IC50 stood at 745 nM.
`CC(C)=CCC1N(S(=O)(=O)c2ccc(F)cc2)c2ccc(C(=O)NCc3ncccc3C(F)(F)F)cc2C12CCC(O)(C(F)(F)F)CC2` (stereo not shown) [Example 23, 1'-[(4-fluorophenyl)sulfonyl]-4-hydroxy-2'-(3-methylbut-2-en-1-yl)-4-(trifluoromethyl)-N-{[3-(trifluoromethyl)pyridin-2-yl]methyl}-1',2'-dihydrospiro[cyclohexane-1,3'-indole]-5'-carboxamide]: the IC50 turned out to be 713 nM.
For `Cc1cccc(NC(=O)c2ccc3c(c2)C2(CCC(O)(C(F)(F)F)CC2)C(C2CC2)N3S(=O)(=O)c2ccc(F)cc2)c1` (stereo not shown) [Example 24, 2'-cyclopropyl-1'-[(4-fluorophenyl)sulfonyl]-4-hydroxy-N-(3-methylphenyl)-4-(trifluoromethyl)-1',2'-dihydrospiro[cyclohexane-1,3'-indole]-5'-carboxamide], the IC50 worked out at 796 nM.
On to `Cc1cncc(NC(=O)c2ccc3c(c2)C2(CCC(O)(C(F)(F)F)CC2)C(C2CC2)N3S(=O)(=O)c2ccc(F)cc2)c1` (stereo not shown) [Example 25, 2'-cyclopropyl-1'-[(4-fluorophenyl)sulfonyl]-4-hydroxy-N-(5-methylpyridin-3-yl)-4-(trifluoromethyl)-1',2'-dihydrospiro[cyclohexane-1,3'-indole]-5'-carboxamide], for which the IC50 worked out at 559 nM.
Take `CC1N(S(=O)(=O)c2ccc(F)cc2)c2ccc(C(=O)NCc3ccccc3Cl)cc2C12CCC(O)(C(F)(F)F)CC2` (stereo not shown) [Example 26, N-(2-chlorobenzyl)-1'-[(4-fluorophenyl)sulfonyl]-4-hydroxy-2'-methyl-4-(trifluoromethyl)-1',2'-dihydrospiro[cyclohexane-1,3'-indole]-5'-carboxamide]: the IC50 was found to be 432 nM.
